Consider 19 molecules from US20130079345A1, “[…] ACTIVE DISUBSTITUTED TRIAZINE DERIVATIVES” (BAYER INTELLECTUAL PROPERTY GMBH, priority 2010, published 2013).

Where a name gives a salt, the structure may show the parent alone.

Test [1] concerns NF-kappaB reporter gene activation in HEK293 cells. Nature of the test: NF-kappaB reporter assay. Format: cell-based. Conditions: Homo sapiens, 20 ng/ml TNF alpha, 5 h. The method, then: Cells were maintained in RPMI cell culture medium+glutamine (PAN Biotech GmbH, Aidenbach, Germany) supplemented with 10% fetal calf serum (PAA Laboratories GmbH, Pasching, Austria) and grown at 37° C., 5% CO2. HEK293 cells grown to 50% confluence were transfected with the Amaxa® Cell Line Nucleofector® Kit V (Lonza, Basel, Switzerland, catalog #VCA-1003). Transfections were performed according to manufacturer's optimized protocol for transfection of HEK293 cells. In brief, 2×10^5 cells were transfected with 5 μg highly purified plasmid DNA. Cells were transfected with a NF-kappa B reporter plasmid (pNFkBluc), pTALluc for control, or pMAXGFP for transfection control. After transfection, cells were taken up in 500 μL RPMI1640 cell culture medium, incubated for 1 h at 37° C., and 4.5 ml DMEM without phenol red were added per transfection. Transfected cells were seeded in 96 well plates (Greiner Bio-One, Frickenhausen, Germany, catalog #655098) with 100 μL cell suspension per well and incubated for 48 h. To each well, 100 μL DMEM with 2× concentrated compound diluted from 10 mM DMSO stocks, or 100 μL DMEM with 0.4% DMSO for control wells, was added. The compounds of general formula (I) summarized in Table 6 were used in this assay. Cells were stimulated with 20 ng/ml TNF alpha, and plates were incubated for 5 h at 37° C./5% CO2. Cell culture supernatants were removed to leave 100 μl medium per well, followed by addition of 100 μl Bright Glo luciferase assay reagent (Promega, Madison, Wis., USA, catalog #E2620), and shaking for 5 minutes in the dark. Luminescence was measured with a Victor Photospectrometer (Perkin Elmer, Waltham, Mass., USA). […], values were calculated with the software Excel Fit (IDBS, Guildford, UK) from 2-fold dilution series comprising at least 10 concentrations in duplicates.

The target of test [2] is T1, CDK2/CyclinA (Homo sapiens, UniProt P24941).
T1 construct: purchased Proqinase
Nature of the test: LanthaScreen Eu Kinase Binding Assay, CDK2. Conditions: tracer 236, read-out: Affinity (Kd) CDK2. The essentials: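 TR-FRET competition binding with Alexa Fluor 647 tracer and Eu-anti-GST antibody; e.g. CDK2/Cyclin A 15 nM with tracer 236 60 nM (working solutions). Kinase buffer: HEPES 20 mM pH 8.0, MgCl2 10 mM, DTT 1 mM, Brij-35 0.01%; 8-point 1:3 series, 1 h at room temperature; Kd from sigmoidal dose-response curves.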
For orientation: TR-FRET usually uses a lanthanide donor and a delayed reading to cut background.

For test [3], the target named is T2, CDK1/CyclinB1 (Homo sapiens, UniProt P06493).
T2 construct: purchased Carna
T2 sequence (P06493 whole entry): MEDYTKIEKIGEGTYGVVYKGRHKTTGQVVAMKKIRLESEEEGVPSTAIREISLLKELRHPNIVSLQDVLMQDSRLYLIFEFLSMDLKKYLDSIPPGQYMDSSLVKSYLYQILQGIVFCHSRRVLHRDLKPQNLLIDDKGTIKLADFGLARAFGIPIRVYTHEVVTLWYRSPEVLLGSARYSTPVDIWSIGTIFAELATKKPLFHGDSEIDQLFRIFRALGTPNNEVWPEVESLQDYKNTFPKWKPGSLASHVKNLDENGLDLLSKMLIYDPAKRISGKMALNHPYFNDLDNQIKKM
T2 sequence (P14635 whole entry partner): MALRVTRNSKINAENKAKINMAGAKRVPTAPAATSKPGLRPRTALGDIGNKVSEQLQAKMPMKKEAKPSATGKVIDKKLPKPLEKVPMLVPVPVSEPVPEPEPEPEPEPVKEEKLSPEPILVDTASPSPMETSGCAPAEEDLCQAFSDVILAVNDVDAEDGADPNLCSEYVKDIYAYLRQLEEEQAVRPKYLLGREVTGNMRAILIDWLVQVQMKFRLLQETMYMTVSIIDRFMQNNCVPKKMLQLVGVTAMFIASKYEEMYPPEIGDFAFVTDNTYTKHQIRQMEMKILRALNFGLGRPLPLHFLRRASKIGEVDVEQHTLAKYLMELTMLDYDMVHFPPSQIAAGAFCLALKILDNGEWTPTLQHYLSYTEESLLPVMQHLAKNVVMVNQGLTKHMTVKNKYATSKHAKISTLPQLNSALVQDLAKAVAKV
Nature of the test: Lance Ultra KinaSelect Assay, CDK1. In kind it is biochemical. The settings on record: ATP 20 μM, read-out: Inhibition (IC50) CDK1. As for the experimental part:
This protocol describes how the Lance Ultra KinaSelect Assay was performed to determine half maximal inhibitory concentration (IC50) of compounds of general formula (I) and CDK/Cyclin complexes. The principle behind this enzymatic assay is based upon the phosphorylation of the ULight-Peptide Substrat. It is detected by using a specific EU-labeled anti-phospho peptide antibody. The binding of the Eu-labeled anti-phospho peptide antibody to the phosphorylated U Light labeled peptide gives rise to a FRET-signal. Binding of an inhibitor to the kinase prevents phosphorylation of the ULight-MBP Substrat, resulting in a loss of FRET.
The compounds of general formula (I) summarized in Table 5 were diluted from a 10 mM DMSO stock solution 1:10 in a total volume of 15 μL DMSO. This compound predilution was then serial diluted 1:3 over 8 steps in DMSO and briefly spun down. Each compound solution was now diluted 1:20 in Enzymatic Buffer (HEPES: 50 mM, pH: 7.5; MgCl2: 10 mM; EGTA: 1 mM; DTT: 2 mM; Tween-20: 0.01%), mixed thoroughly and spun down. For every sample, 2 μL of the diluted compound were mixed with 6 μL CDK/Cyclin/Substrat solution and […] in a well of a small volume 384 well plate (Corning Incorporated, Corning, N.Y., USA; order no. 3673). […] For positive controls, in each well 2 μL of DMSO solution (1% final DMSO assay concentration) was mixed with 6 μL CDK/Cyclin/Substrat (appropriate final concentration see Table 3) and 2 μL Tracer ATP solution (appropriate final concentration see Table 3). Positive and negative controls were calculated from at least 8 different sample wells. The 384 well plates were mixed in a Teleshaker plate mixer (Beckman Coulter, Brea, Calif., USA) at 2000 rpm for 40 sec, and incubated for 1 h at room temperature. Before reading, 10 μL detection buffer (Lance Detection Buffer 1×; EDTA: […]; Eu-Anti-P-MBP: see Table 3) was added. The FRET signal was measured at 340 nm excitation, 665 nm and 615 nm emission (for the kinase tracer and LanthaScreen Eu-AB, respectively) with an Envision spectrophotometer (Perkin Elmer, Waltham, Mass., USA) with 50 μs delay and 300 μs integration time. IC50 values were determined from the sigmoidal dose response curves with the software Quattro Workflow (Quattro GmbH, Munich, Germany).

In test [1], `COc1ccc(F)cc1-c1ncnc(Nc2cccc(CS(N)(=O)=O)c2)n1` [Compound B3, 3-[(4-(5-Fluoro-2-methoxyphenyl)-1,3,5-triazin-2-yl)amino]benzenemethanesulfonamide] had a half-inhibitory concentration (IC50) of 2470 nM. Moreover, the dissociation constant Kd in test [2] was 375 nM.
Regarding `COc1ccccc1-c1ncnc(Nc2ccccc2)n1` [Compound P1, 4-(2-Methoxyphenyl)-N-phenyl-1,3,5-triazine-2-amine], it took 18800 nM to reach half-maximal inhibition in test [1] (IC50). In test [2], the Kd was determined as 709 nM.
`COc1cc(F)ccc1-c1ncnc(Nc2cccc(CS(N)(=O)=O)c2)n1` [B2′, 1-(3-{[4-(4-fluoro-2-methoxyphenyl)-1,3,5-triazin-2-yl]amino}phenyl)methanesulfonamide hydrochloride]: the Kd in test [2] came to 207 nM.
Consider `COc1cccc(F)c1-c1ncnc(Nc2cccc(CS(N)(=O)=O)c2)n1` [Compound B4, 3-[(4-(6-Fluoro-2-methoxyphenyl)-1,3,5-triazin-2-yl)amino]benzenemethanesulfonamide], for which the half-inhibitory concentration (IC50) in test [3] came out at 5680 nM; in test [1], 9710 nM. The Kd in test [2] amounted to 704 nM.
Regarding `COc1cc(F)ccc1-c1ncnc(Nc2cccc(CCS(N)(=O)=O)c2)n1` [Compound D2, 2-[3-((4-(4-Fluoro-2-methoxyphenyl)-1,3,5-triazin-2-yl)amino)phenyl]ethanesulfonamide], the 50% inhibitory concentration (IC50) in test [3] was greater than 10000 nM; in test [1], 1630 nM. For the same molecule, the Kd in test [2] was less than 5 nM.
On to `COc1ccccc1-c1ncnc(Nc2cccc(S(N)(=O)=O)c2)n1` [C1′, 3-[(4-(2-Methoxyphenyl)-1,3,5-triazin-2-yl)amino]benzenesulfonamide trifluoroacetic acid salt], for which the IC50 in test [3] was determined as 1350 nM; in test [1], 1470 nM. Besides, the Kd in test [2] stood at 220 nM.
`COc1cc(F)ccc1-c1ncnc(Nc2cccc(CS(N)(=O)=O)c2)n1` [B2″, 1-(3-{[4-(4-fluoro-2-methoxyphenyl)-1,3,5-triazin-2-yl]amino}phenyl)methanesulfonamide trifluoroacetic acid salt]: the concentration for half-maximal inhibition (IC50) in test [3] was 899 nM; in test [1], 1600 nM.
As for `NS(=O)(=O)Cc1cccc(Nc2ncnc(-c3ccccc3OCc3ccncc3)n2)c1` [Compound B16, 3-[(4-(2-((4-Pyridinyl)methoxy)phenyl)-1,3,5-triazin-2-yl)amino]benzenemethanesulfonamide], the half-maximal inhibitory concentration (IC50) in test [3] came to 6770 nM; in test [1], 960 nM. Also, the Kd in test [2] turned out to be 1690 nM.
In test [1], `NS(=O)(=O)Cc1cccc(Nc2ncnc(-c3ccccc3Oc3ccccc3)n2)c1` [Compound B14, 1-(3-{[4-(2-phenoxyphenyl)-1,3,5-triazin-2-yl]amino}phenyl)methanesulfonamide] displayed an IC50 of 3960 nM. In test [2], the dissociation constant Kd came out at 3450 nM.
Take `COc1cc(Cl)ccc1-c1ncnc(Nc2cccc(CS(N)(=O)=O)c2)n1` [Compound B6, 3-[(4-(4-Chloro-2-methoxyphenyl)-1,3,5-triazin-2-yl)amino]benzenemethanesulfonamide]: the concentration for half-maximal inhibition (IC50) in test [3] was greater than 10000 nM; in test [1], 2490 nM.
The matching figures for `CCCS(=O)(=O)Nc1cccc(Nc2ncnc(-c3ccccc3OC)n2)c1` [Compound L1, N-[3-((4-(2-Methoxyphenyl)-1,3,5-triazin-2-yl)amino)phenyl]-propanesulfonamide]: greater than 10000 nM and 6530 nM.
Turning to `COc1ccccc1-c1ncnc(Nc2cccc([N+](=O)[O-])c2)n1` [Compound H1, 4-(2-Methoxyphenyl)-N-(3-nitrophenyl)-1,3,5-triazine-2-amine], the IC50 in test [1] turned out to be 2670 nM. In test [2], the Kd is 68 nM.
Consider `CCOc1ccccc1-c1ncnc(Nc2cccc(CS(N)(=O)=O)c2)n1` [Compound B12, 3-[(4-(2-Ethoxyphenyl)-1,3,5-triazin-2-yl)amino]benzenemethanesulfonamide], for which the IC50 in test [3] was 11500 nM; in test [1], 3670 nM. Also, in test [2], the Kd was found to be 2350 nM.
In the same order, the values of `COc1ccccc1-c1ncnc(Nc2cccc(CS(N)(=O)=O)c2)n1` [B1′, 3-[(4-(2-Methoxyphenyl)-1,3,5-triazin-2-yl)amino]benzenemethanesulfonamide trifluoroacetic acid salt] are 12000 nM, 3560 nM and 798 nM.
In the same order, the values of `COc1ccccc1-c1ncnc(Nc2cccc(CCS(N)(=O)=O)c2)n1` [Compound D1, 2-[3-((4-(2-Methoxyphenyl)-1,3,5-triazin-2-yl)amino)phenyl]ethanesulfonamide] are 2580 nM, 4980 nM and 310 nM.
Take `NS(=O)(=O)Cc1cccc(Nc2ncnc(-c3ccccc3OCc3ccccc3)n2)c1` [Compound B13, 3-[(4-(2-Benzyloxyphenyl)-1,3,5-triazin-2-yl)amino]benzenemethanesulfonamide]: in test [2], the Kd stood at 687 nM.
For `COc1cnccc1-c1ncnc(Nc2cccc(CS(N)(=O)=O)c2)n1` [Compound B19, 3-[(4-(3-Methoxypyridin-4-yl)-1,3,5-triazin-2-yl)amino]benzenemethanesulfonamide], inhibition in test [1] was half-maximal at 19900 nM (IC50).
Consider `NS(=O)(=O)Cc1cccc(Nc2ncnc(-c3ccccc3OCc3ccccc3)n2)c1` [B13′, 3-[(4-(2-Benzyloxyphenyl)-1,3,5-triazin-2-yl)amino]benzenemethanesulfonamide trifluoroacetic acid salt], for which the IC50 in test [3] turned out to be 3400 nM; in test [1] it was 360 nM. The Kd in test [2] was determined as 88 nM.
For `COc1ccccc1-c1ncnc(Nc2cccc(NS(C)(=O)=O)c2)n1` [Compound K1, N-[3-((4-(2-Methoxyphenyl)-1,3,5-triazin-2-yl)amino)phenyl]-methanesulfonamide], the values for the IC50 in test [3] and in test [1] were greater than 10000 nM and 5520 nM, respectively. The Kd in test [2] was 283 nM.

One may read the IC50 as the concentration that inhibits the measured activity by half. What is called Kd is the constant that tells how readily two partners part at equilibrium.
